According to US8778951B2, “Heteroaryl compounds and their uses” (Novartis AG, priority 2009, dated 2014):

Biological target: Cdk9/cyclinT1 (Homo sapiens (Human), UniProt P50750)
Assay: Cdk9/CyclinT1 IMAP Protocol (fluorescence polarization kinase assay)
Type: biochemical
Conditions: Table 2; generated using one of the two Cdk9/cyclinT1 assays (IMAP or Alpha Screen), not specified which; unit inferred
Description: Cdk9/CyclinT1 IMAP Protocol
The biological activity of the compounds of the invention can be determined using the assay described below.
Cdk9/cyclinT1 is purchased from Millipore, cat #14-685. The final total protein concentration in the assay 4 nM. […] The final concentration of peptide substrate is 100 nM. The ATP substrate (Adenosine-5′-triphosphate) is purchased from Roche Diagnostics, cat#1140965. The final concentration of ATP substrate is 6 uM. IMAP (Immobilized Metal Assay for Phosphochemicals) Progressive Binding reagent is purchased from Molecular Devices, cat#R8139. Fluorescence polarization (FP) is used for detection. The 5TAMRA-cdk7tide peptide is phosphorylated by Cdk9/cyclinT1 kinase using the ATP substrate. The Phospho-5TAMRA-cdk7tide peptide substrate is bound to the IMAP Progressive Binding Reagent. The binding of the IMAP Progressive Binding Reagent changes the fluorescence polarization of the 5TAMRA-cdk7tide peptide which is measured at an excitation of 531 nm and FP emission of 595 nm. Assays are carried out in 100 mM Tris, pH=7.2, mM MgCl2, 0.05% NaN3, 0.01% Tween-20, 1 mM dithiothreitol and 2.5% dimethyl sulfoxide. IMAP Progressive Binding Reagent is diluted 1:800 in 100% 1× Solution A from Molecular Devices, cat#R7285.
General protocol is as follows: To 10 ul of cdk9/cyclinT1, 0.5 ul of test compound in dimethyl sulfoxide is added. 5TAMRA-cdk7tide and ATP are mixed. 10 ul of the 5TAMRA-cdk7tide/ATP mix is added to start the reaction. The reaction is allowed to proceed for 4.5 hrs. 60 uL of IMAP Progressive Binding Reagent is added. After >1 hr of incubation, plates are read on the Envision 2101 from Perkin-Elmer. The assay is run in a 384-well format using black Corning plates, cat#3573.

Cdk9/cyclinT1, sequence (P50750 whole entry): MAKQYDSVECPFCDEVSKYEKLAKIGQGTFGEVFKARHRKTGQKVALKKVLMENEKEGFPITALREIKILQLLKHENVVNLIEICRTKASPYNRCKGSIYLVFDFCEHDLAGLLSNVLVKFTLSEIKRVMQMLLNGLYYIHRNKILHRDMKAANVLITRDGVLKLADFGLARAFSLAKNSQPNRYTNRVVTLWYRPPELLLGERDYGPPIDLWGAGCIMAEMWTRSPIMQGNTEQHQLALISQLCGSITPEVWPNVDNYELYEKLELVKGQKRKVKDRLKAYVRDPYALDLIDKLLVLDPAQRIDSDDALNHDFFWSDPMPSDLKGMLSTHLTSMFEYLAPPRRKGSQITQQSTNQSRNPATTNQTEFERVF
Cdk9/cyclinT1, sequence (O60563 whole entry partner): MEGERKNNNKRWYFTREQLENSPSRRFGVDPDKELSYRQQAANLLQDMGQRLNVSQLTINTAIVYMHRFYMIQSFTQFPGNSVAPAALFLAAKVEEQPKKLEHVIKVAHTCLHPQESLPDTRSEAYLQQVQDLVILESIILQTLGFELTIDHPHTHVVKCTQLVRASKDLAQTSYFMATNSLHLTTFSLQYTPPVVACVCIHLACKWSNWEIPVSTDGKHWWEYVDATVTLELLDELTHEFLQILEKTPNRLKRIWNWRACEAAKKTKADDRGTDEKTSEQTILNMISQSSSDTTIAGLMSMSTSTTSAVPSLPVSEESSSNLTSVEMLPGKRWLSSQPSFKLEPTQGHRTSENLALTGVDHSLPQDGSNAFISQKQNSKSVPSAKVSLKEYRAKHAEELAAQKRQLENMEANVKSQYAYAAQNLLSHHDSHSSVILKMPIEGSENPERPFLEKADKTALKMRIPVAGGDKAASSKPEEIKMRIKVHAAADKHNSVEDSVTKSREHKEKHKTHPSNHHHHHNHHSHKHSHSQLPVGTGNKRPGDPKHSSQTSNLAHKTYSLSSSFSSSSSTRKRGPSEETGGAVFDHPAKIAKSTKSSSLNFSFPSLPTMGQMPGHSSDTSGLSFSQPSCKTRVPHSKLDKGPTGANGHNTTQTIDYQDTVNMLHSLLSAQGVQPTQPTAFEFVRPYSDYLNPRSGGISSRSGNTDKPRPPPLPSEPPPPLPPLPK

Structure (SMILES)	IC50
N[C@H]1CC[C@H](Nc2cc(-c3cccc(NCc4cccc(Cl)c4)n3)c(Cl)cn2)CC1 [Compound 37]	7.95 nM
N[C@H]1CC[C@H](Nc2cc(-c3cccc(NCc4cncc(F)c4)n3)c(Cl)cn2)CC1 [Compound 38]	7.95 nM
N[C@H]1CC[C@H](Nc2cc(-c3cccc(NCc4cc(F)ccc4F)n3)c(Cl)cn2)CC1 [Compound 39]	8.9 nM
N[C@H]1CC[C@H](Nc2cc(-c3cccc(NCc4ccccc4F)n3)c(Cl)cn2)CC1 [Compound 41]	12.9 nM
N[C@H]1CC[C@H](Nc2cc(-c3cccc(NCc4ccccc4Cl)n3)c(Cl)cn2)CC1 [Compound 42]	48.1 nM
COc1cccc(CNc2cccc(-c3cc(N[C@H]4CC[C@H](N)CC4)ncc3Cl)n2)c1 [Compound 44]	11.2 nM
N[C@H]1CC[C@H](Nc2cc(-c3cccc(NCc4cccc(C(F)(F)F)c4)n3)c(Cl)cn2)CC1 [Compound 47]	7.95 nM
N[C@H]1CC[C@H](Nc2cc(-c3cccc(NCc4cccc(Br)c4)n3)c(Cl)cn2)CC1 [Compound 48]	7.94 nM
N[C@H]1CC[C@H](Nc2cc(-c3cccc(NCc4cccc(O)c4)n3)c(Cl)cn2)CC1 [Compound 49]	14.4 nM
Cc1ccc(CNc2cccc(-c3cc(N[C@H]4CC[C@H](N)CC4)ncc3Cl)n2)cc1 [Compound 51]	17.4 nM
N[C@H]1CC[C@H](Nc2cc(-c3cccc(NCc4ccc(C(F)(F)F)cc4)n3)c(Cl)cn2)CC1 [Compound 52]	19.2 nM
N[C@H]1CC[C@H](Nc2cc(-c3cccc(NCc4ccc(OC(F)F)cc4)n3)c(Cl)cn2)CC1 [Compound 53]	11.1 nM
N[C@H]1CC[C@H](Nc2cc(-c3cccc(NCc4ccc(OC(F)(F)F)cc4)n3)c(Cl)cn2)CC1 [Compound 54]	23.2 nM
N[C@H]1CC[C@H](Nc2cc(-c3cccc(NCc4ccc(Cl)cc4)n3)c(Cl)cn2)CC1 [Compound 55]	7.95 nM
NC[C@H]1CC[C@H](Nc2cc(-c3cccc(NCC4CCCCC4)n3)c(Cl)cn2)CC1 [Compound 56]	39.3 nM
NC[C@H]1CC[C@H](Nc2cc(-c3cccc(NCc4ccccc4)n3)c(Cl)cn2)CC1 [Compound 57]	32.6 nM
NC[C@H]1CC[C@H](Nc2cc(-c3cccc(NCc4cccnc4)n3)c(Cl)cn2)CC1 [Compound 58]	31.2 nM
NC[C@H]1CC[C@H](Nc2cc(-c3cccc(NCc4cncc(F)c4)n3)c(Cl)cn2)CC1 [Compound 59]	9.13 nM
NC[C@H]1CC[C@H](Nc2cc(-c3cccc(NCc4ccncc4)n3)c(Cl)cn2)CC1 [Compound 60]	7.95 nM
NC[C@H]1CC[C@H](Nc2cc(-c3cccc(NCc4cc(F)ccc4F)n3)c(Cl)cn2)CC1 [Compound 61]	18.1 nM
NC[C@H]1CC[C@H](Nc2cc(-c3cccc(NCc4cccc(Cl)c4)n3)c(Cl)cn2)CC1 [Compound 62]	7.95 nM
NC[C@H]1CC[C@H](Nc2cc(-c3cccc(NCc4cccc(OC(F)F)c4)n3)c(Cl)cn2)CC1 [Compound 64]	54.6 nM
NC[C@H]1CC[C@H](Nc2cc(-c3cccc(NCc4ccc(F)cc4)n3)c(Cl)cn2)CC1 [Compound 66]	17.1 nM

Structure (SMILES)	IC50
CC(C)(C)OC(=O)N1CCC(Nc2cc(-c3cccc(NCc4cccc(F)c4)n3)c(Cl)cn2)CC1 [Compound 67]	2550 nM
Clc1cnc(NC2CCNCC2)cc1-c1cccc(NCC2CCCCC2)n1 [Compound 68]	274 nM
Clc1cnc(NC2CCNCC2)cc1-c1cccc(NCc2ccccc2)n1 [Compound 69]	154 nM
Fc1cncc(CNc2cccc(-c3cc(NC4CCNCC4)ncc3Cl)n2)c1 [Compound 70]	173 nM
Fc1cc(F)cc(CNc2cccc(-c3cc(NC4CCNCC4)ncc3Cl)n2)c1 [Compound 71]	27.4 nM
Clc1cnc(NC2CCNCC2)cc1-c1cccc(NCc2ccncc2)n1 [Compound 72]	114 nM
Clc1cccc(CNc2cccc(-c3cc(NC4CCNCC4)ncc3Cl)n2)c1 [Compound 73]	35.2 nM
Fc1ccc(CNc2cccc(-c3cc(NC4CCNCC4)ncc3Cl)n2)cc1F [Compound 74]	41.6 nM
N[C@H]1CC[C@H](Nc2cc(-c3cccc(NCC4CCCCCC4)n3)c(Cl)cn2)CC1 [Compound 75]	13.5 nM
CN(Cc1ccccc1)c1cccc(-c2cc(N[C@H]3CC[C@H](N)CC3)ncc2Cl)n1 [Compound 76]	11.1 nM
CN(Cc1cccc(F)c1)c1cccc(-c2cc(N[C@H]3CC[C@H](N)CC3)ncc2Cl)n1 [Compound 77]	7.95 nM
CCS(=O)(=O)N[C@H]1CC[C@H](Nc2cc(-c3cccc(NCc4cccc(F)c4)n3)c(Cl)cn2)CC1 [Compound 78]	24.2 nM
CCS(=O)(=O)NC[C@H]1CC[C@H](Nc2cc(-c3cccc(NCc4cccc(F)c4)n3)c(Cl)cn2)CC1 [Compound 79]	7.95 nM
CN1CCC[C@H]1C(=O)N[C@H]1CC[C@H](Nc2cc(-c3cccc(NCc4cccc(F)c4)n3)c(Cl)cn2)CC1 [Compound 80]	31.7 nM
O=C(N[C@H]1CC[C@H](Nc2cc(-c3cccc(NCc4cccc(F)c4)n3)c(Cl)cn2)CC1)c1cccnc1 [Compound 81]	54.2 nM
CN(C)CC(=O)NC[C@H]1CC[C@H](Nc2cc(-c3cccc(NCc4cccc(F)c4)n3)c(Cl)cn2)CC1 [Compound 82]	9.05 nM
CN1CCC[C@H]1C(=O)NC[C@H]1CC[C@H](Nc2cc(-c3cccc(NCc4cccc(F)c4)n3)c(Cl)cn2)CC1 [Compound 83]	11.6 nM
O=C(NC[C@H]1CC[C@H](Nc2cc(-c3cccc(NCc4cccc(F)c4)n3)c(Cl)cn2)CC1)c1cccnc1 [Compound 84]	14.1 nM
CN(C)CC(=O)N1CCC(Nc2cc(-c3cccc(NCc4cccc(F)c4)n3)c(Cl)cn2)CC1 [Compound 85]	68.5 nM
CN1CCC[C@H]1C(=O)N1CCC(Nc2cc(-c3cccc(NCc4cccc(F)c4)n3)c(Cl)cn2)CC1 [Compound 86]	81.5 nM
O=C(c1cccnc1)N1CCC(Nc2cc(-c3cccc(NCc4cccc(F)c4)n3)c(Cl)cn2)CC1 [Compound 87]	69 nM
CCN[C@H]1CC[C@H](Nc2cc(-c3cccc(NCc4cccc(F)c4)n3)c(Cl)cn2)CC1 [Compound 88]	11 nM
Clc1cnc(N[C@@H]2CCCNC2)cc1-c1cccc(NCC2CCCCC2)n1 [Compound 89]	2580 nM

Structure (SMILES)	IC50
Clc1cnc(N[C@@H]2CCCNC2)cc1-c1cccc(NCC2CCOCC2)n1 [Compound 90]	2960 nM
Fc1cccc(CNc2cccc(-c3cc(N[C@@H]4CCCNC4)ncc3Cl)n2)c1 [Compound 91]	336 nM
Fc1cc(F)cc(CNc2cccc(-c3cc(N[C@@H]4CCCNC4)ncc3Cl)n2)c1 [Compound 92]	296 nM
Clc1cnc(N[C@@H]2CCCNC2)cc1-c1cccc(NCc2ccncc2)n1 [Compound 93]	928 nM
Fc1ccc(CNc2cccc(-c3cc(N[C@@H]4CCCNC4)ncc3Cl)n2)cc1F [Compound 94]	507 nM
Clc1cnc(N[C@H]2CCCNC2)cc1-c1cccc(NCC2CCCCC2)n1 [Compound 95]	1950 nM
Clc1cnc(N[C@H]2CCCNC2)cc1-c1cccc(NCC2CCOCC2)n1 [Compound 96]	1280 nM
Fc1cccc(CNc2cccc(-c3cc(N[C@H]4CCCNC4)ncc3Cl)n2)c1 [Compound 97]	339 nM
Fc1cc(F)cc(CNc2cccc(-c3cc(N[C@H]4CCCNC4)ncc3Cl)n2)c1 [Compound 98]	416 nM
Clc1cnc(N[C@H]2CCCNC2)cc1-c1cccc(NCc2ccncc2)n1 [Compound 99]	679 nM
Fc1ccc(CNc2cccc(-c3cc(N[C@H]4CCCNC4)ncc3Cl)n2)cc1F [Compound 100]	309 nM
N[C@H]1CC[C@H](Nc2cc(-c3cncc(NCc4cccc(F)c4)n3)c(Cl)cn2)CC1 [Compound 101]	7.95 nM
CC(C)CN1CCC(Nc2cc(-c3cccc(NCc4cccc(F)c4)n3)c(Cl)cn2)CC1 [Compound 102]	121 nM
CN1CCC(Nc2cc(-c3cccc(NCc4cccc(F)c4)n3)c(Cl)cn2)CC1 [Compound 103]	134 nM
N[C@H]1CC[C@H](Nc2cc(-c3cccc(NC[C@H]4CCCO4)n3)c(Cl)cn2)CC1 [Compound 104]	141 nM
CN(CC1CCOCC1)c1cccc(-c2cc(N[C@H]3CC[C@H](N)CC3)ncc2Cl)n1 [Compound 108]	7.95 nM
Nc1ncc(CNc2cccc(-c3cc(N[C@H]4CC[C@H](N)CC4)ncc3Cl)n2)cn1 [Compound 109]	15.8 nM
CN1CCN(C[C@H]2CC[C@H](Nc3cc(-c4cccc(NCc5cccc(F)c5)n4)c(Cl)cn3)CC2)CC1 [Compound 111]	30.8 nM
Fc1cccc(CNc2cccc(-c3cc(N[C@H]4CC[C@H](CN5CCCC5)CC4)ncc3Cl)n2)c1 [Compound 112]	27.3 nM
CNC(=O)[C@H]1CC[C@H](Nc2cc(-c3cccc(NCc4cccc(F)c4)n3)c(Cl)cn2)CC1 [Compound 113]	50.2 nM
O[C@H]1CC[C@H](Nc2cc(-c3cccc(NCc4cccc(F)c4)n3)c(Cl)cn2)CC1 [Compound 114]	7.95 nM
